In PubChem BioAssay AID248 (DTP/NCI, 2004):
Several values for one entry are separate records, joined by “and”; a condition that tells them apart may be missing. Identical values can stand only once. Inconclusive results and toxic doses are left out.

Tested on: L1210 leukemia ip in BDF1 mice, survival T/C
Assay: NCI In Vivo Anticancer Drug Screen. Data for tumor model L1210 Leukemia (intraperitoneal) in B6D2F1 (BDF1) mice
Conditions: endpoint: mean survival time, higher = longer survival
Method in brief: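 Transplantable tumor model; survival measured in treated vs vehicle control mice. Value = treated/control.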

[1] = dose: 100.0 mg/kg/injection, schedule: Q01DX001 (ip), vehicle: carboxymethylcellulose (CMC)
[2] = dose: 50.0 mg/kg/injection, schedule: Q01DX009 (ip), vehicle: Klucel (hydroxypropylcellulose) (HPC)
[3] = dose: 100.0 mg/kg/injection, schedule: Q04DX003 (ip), vehicle: Klucel (hydroxypropylcellulose) (HPC)
[4] = dose: 200.0 mg/kg/injection, schedule: Q04DX003 (ip), vehicle: Klucel (hydroxypropylcellulose) (HPC)
[5] = dose: 400.0 mg/kg/injection, schedule: Q04DX003 (ip), vehicle: Klucel (hydroxypropylcellulose) (HPC)
[6] = dose: 100.0 mg/kg/injection, schedule: Q01DX009 (ip), vehicle: Klucel (hydroxypropylcellulose) (HPC)
[7] = dose: 200.0 mg/kg/injection, schedule: Q01DX009 (ip), vehicle: Klucel (hydroxypropylcellulose) (HPC)
[8] = dose: 200.0 mg/kg/injection, schedule: Q01DX001 (ip), vehicle: carboxymethylcellulose (CMC)
[9] = dose: 400.0 mg/kg/injection, schedule: Q01DX001 (ip), vehicle: carboxymethylcellulose (CMC)
[10] = dose: 100.0 mg/kg/injection, schedule: Q01DX001 (ip), vehicle: saline
[11] = dose: 200.0 mg/kg/injection, schedule: Q01DX001 (ip), vehicle: saline
[12] = dose: 400.0 mg/kg/injection, schedule: Q01DX001 (ip), vehicle: saline

For Cc1ccc(NC(=O)N(CCCl)N=O)cc1Cl, the T/C (dose: 0.5 mg/kg/injection, schedule: Q01DX009 (ip), vehicle: carboxymethylcellulose (CMC)) was 112 % of control, the T/C (dose: 1.0 mg/kg/injection, schedule: Q01DX009 (ip), vehicle: carboxymethylcellulose (CMC)) was 117 % of control and the T/C (dose: 13.0 mg/kg/injection, schedule: Q01DX001 (ip), vehicle: carboxymethylcellulose (CMC)) was 120 % of control. For the same molecule, the T/C (dose: 13.0 mg/kg/injection, schedule: Q01DX007 (ip), vehicle: carboxymethylcellulose (CMC)) was 159 % of control, the T/C (dose: 14.0 mg/kg/injection, schedule: Q01DX009 (ip), vehicle: carboxymethylcellulose (CMC)) was 164 % of control and the T/C (dose: 29.0 mg/kg/injection, schedule: Q01DX001 (ip), vehicle: other) was 229 % of control. For the same molecule, the T/C (dose: 33.0 mg/kg/injection, schedule: Q01DX009 (ip), vehicle: carboxymethylcellulose (CMC)) was 166 % of control, the T/C (dose: 44.0 mg/kg/injection, schedule: Q01DX001 (ip), vehicle: other) was 159 % of control and the T/C (dose: 44.4 mg/kg/injection, schedule: Q01DX001 (ip), vehicle: carboxymethylcellulose (CMC)) was 159 % of control. The T/C (dose: 66.6 mg/kg/injection, schedule: Q01DX001 (ip), vehicle: carboxymethylcellulose (CMC)) was 244 % of control, the T/C [1] was 193 % of control and the T/C (dose: 150.0 mg/kg/injection, schedule: Q01DX001 (ip), vehicle: carboxymethylcellulose (CMC)) was 100 % of control.

In the case of Cc1cnc(-n2nc(-c3ccccc3)cc2-c2ccccc2)nc1-c1ccccc1O, the T/C (dose: 12.5 mg/kg/injection, schedule: Q01DX009 (ip), vehicle: Klucel (hydroxypropylcellulose) (HPC)) was 87 % of control, the T/C (dose: 25.0 mg/kg/injection, schedule: Q01DX009 (ip), vehicle: Klucel (hydroxypropylcellulose) (HPC)) was 91 % of control and the T/C [2] was 97 % of control and 92 % of control.

In the case of CCOC(=O)CCc1c(C(=O)OCC)[nH]c(C)c1C(=O)OCc1ccccc1, the T/C [3] was 100 % of control, the T/C [4] was 101 % of control and the T/C [5] was 108 % of control.

O=[N+]([O-])c1ccc2nc(NCCCO)c3ccccc3c2c1 was tested, and the T/C [3] was 120 % of control, the T/C [4] was 124 % of control and the T/C [5] was 96 % of control.

NC1=C(c2ccccc2)C(=O)c2ccccc21 was tested, and the T/C [6] was 107 % of control, the T/C [3] was 106 % of control and the T/C [7] was 86 % of control. The T/C [4] was 95 % of control, the T/C (dose: 400.0 mg/kg/injection, schedule: Q01DX009 (ip), vehicle: Klucel (hydroxypropylcellulose) (HPC)) was 96 % of control and the T/C [5] was 90 % of control.

With CN1C2CCC1CC(=C(C#N)C(N)=O)C2 the T/C (dose: 3.13 mg/kg/injection, schedule: Q01DX009 (ip), vehicle: Klucel (hydroxypropylcellulose) (HPC)) was 100 % of control, the T/C (dose: 3.13 mg/kg/injection, schedule: Q04DX003 (ip), vehicle: Klucel (hydroxypropylcellulose) (HPC)) was 107 % of control and the T/C (dose: 6.25 mg/kg/injection, schedule: Q01DX009 (ip), vehicle: Klucel (hydroxypropylcellulose) (HPC)) was 98 % of control. The T/C (dose: 6.25 mg/kg/injection, schedule: Q04DX003 (ip), vehicle: Klucel (hydroxypropylcellulose) (HPC)) was 102 % of control and the T/C (dose: 12.5 mg/kg/injection, schedule: Q04DX003 (ip), vehicle: Klucel (hydroxypropylcellulose) (HPC)) was 104 % of control and 88 % of control.

In the case of CCC(c1ccc(Cl)cc1)N1CCC2(CC1)C(=O)NCN2c1ccccc1 (stereo not given), the T/C (dose: 100.0 mg/kg/injection, schedule: Q01DX009 (ip), vehicle: saline with Tween-80) was 94 % of control, the T/C (dose: 100.0 mg/kg/injection, schedule: Q04DX003 (ip), vehicle: saline with Tween-80) was 102 % of control and the T/C (dose: 200.0 mg/kg/injection, schedule: Q01DX009 (ip), vehicle: saline with Tween-80) was 96 % of control. The T/C (dose: 200.0 mg/kg/injection, schedule: Q04DX003 (ip), vehicle: saline with Tween-80) was 104 % of control, the T/C (dose: 400.0 mg/kg/injection, schedule: Q01DX009 (ip), vehicle: saline with Tween-80) was 89 % of control and the T/C (dose: 400.0 mg/kg/injection, schedule: Q04DX003 (ip), vehicle: saline with Tween-80) was 91 % of control.

CC1=CC(=O)CC(c2ccccc2)C1 (stereo not given) was tested, and the T/C [1] was 105 % of control, the T/C [8] was 103 % of control and the T/C [9] was 109 % of control.

In the case of COC(=O)C1CN(C)CCC1=O (stereo not given), the T/C [10] was 97 % of control, the T/C [11] was 106 % of control and the T/C [12] was 95 % of control.

CC(=O)OCC1OC(OC(C)=O)C(NC(=O)N(C)C(C)=O)C(OC(C)=O)C1OC(C)=O (stereo not given) was tested, and the T/C [3] was 100 % of control, the T/C [4] was 100 % of control and the T/C [5] was 97 % of control.

For Cc1nc2ccccc2c(=O)n1-c1ccc(N(CCCl)CCCl)cc1, the T/C (dose: 100.0 mg/kg/injection, schedule: Q04DX002 (ip), vehicle: saline) was 98 % of control, the T/C (dose: 200.0 mg/kg/injection, schedule: Q04DX002 (ip), vehicle: saline) was 117 % of control and the T/C (dose: 400.0 mg/kg/injection, schedule: Q04DX002 (ip), vehicle: saline) was 103 % of control.

With Cc1ccccc1-c1nc2c(N)nc(N)nc2nc1N the T/C (dose: 25.25 mg/kg/injection, schedule: Q01DX Z (ip), vehicle: carboxymethylcellulose (CMC)) was 104 % of control, the T/C (dose: 50.0 mg/kg/injection, schedule: Q01DX001 (ip), vehicle: carboxymethylcellulose (CMC)) was 101 % of control and the T/C (dose: 50.5 mg/kg/injection, schedule: Q01DX Z (ip), vehicle: carboxymethylcellulose (CMC)) was 106 % of control. The T/C (dose: 79.0 mg/kg/injection, schedule: Q04DX002 (ip), vehicle: Klucel (hydroxypropylcellulose) (HPC)) was 111 % of control, the T/C [1] was 96 % of control and the T/C (dose: 118.0 mg/kg/injection, schedule: Q04DX002 (ip), vehicle: Klucel (hydroxypropylcellulose) (HPC)) was 97 % of control. The T/C (dose: 180.0 mg/kg/injection, schedule: Q04DX002 (ip), vehicle: Klucel (hydroxypropylcellulose) (HPC)) was 100 % of control, the T/C [8] was 104 % of control and the T/C (dose: 270.0 mg/kg/injection, schedule: Q04DX002 (ip), vehicle: Klucel (hydroxypropylcellulose) (HPC)) was 111 % of control. The T/C [9] was 98 % of control, the T/C (dose: 500.0 mg/kg/injection, schedule: Q01DX Z (ip), vehicle: methylcellulose (MC)) was 120 % of control and the T/C (dose: 750.0 mg/kg/injection, schedule: Q01DX Z (ip), vehicle: methylcellulose (MC)) was 114 % of control. For the same molecule, the T/C (dose: 1000.0 mg/kg/injection, schedule: Q01DX Z (ip), vehicle: methylcellulose (MC)) was 101 % of control.

CCCCCCCCCCCCCC[As](=O)(O)CCCCCCCCCCCCCC was tested, and the T/C (dose: 50.0 mg/kg/injection, schedule: Q01DX001 (ip), vehicle: saline) was 103 % of control, the T/C [10] was 101 % of control and the T/C [11] was 101 % of control. The T/C [12] was 95 % of control.

For CCCCOC(=O)c1ccc(OC(=O)Nc2ccc([N+](=O)[O-])cc2OC)cc1, the T/C (dose: 50.0 mg/kg/injection, schedule: Q01DX001 (ip), vehicle: Klucel (hydroxypropylcellulose) (HPC)) was 93 % of control, the T/C [2] was 96 % of control and the T/C (dose: 50.0 mg/kg/injection, schedule: Q01DX009 (ip), vehicle: other) was 101 % of control. For the same molecule, the T/C (dose: 50.0 mg/kg/injection, schedule: Q04DX002 (ip), vehicle: Klucel (hydroxypropylcellulose) (HPC)) was 97 % of control, the T/C (dose: 50.0 mg/kg/injection, schedule: Q04DX003 (ip), vehicle: other) was 98 % of control and the T/C (dose: 100.0 mg/kg/injection, schedule: Q01DX001 (ip), vehicle: Klucel (hydroxypropylcellulose) (HPC)) was 93 % of control. For the same molecule, the T/C [6] was 96 % of control, the T/C (dose: 100.0 mg/kg/injection, schedule: Q01DX009 (ip), vehicle: other) was 105 % of control and the T/C (dose: 100.0 mg/kg/injection, schedule: Q04DX002 (ip), vehicle: Klucel (hydroxypropylcellulose) (HPC)) was 94 % of control. For the same molecule, the T/C (dose: 100.0 mg/kg/injection, schedule: Q04DX003 (ip), vehicle: other) was 109 % of control, the T/C (dose: 200.0 mg/kg/injection, schedule: Q01DX001 (ip), vehicle: Klucel (hydroxypropylcellulose) (HPC)) was 92 % of control and the T/C [7] was 122 % of control. For the same molecule, the T/C (dose: 200.0 mg/kg/injection, schedule: Q01DX009 (ip), vehicle: other) was 102 % of control, the T/C (dose: 200.0 mg/kg/injection, schedule: Q04DX002 (ip), vehicle: Klucel (hydroxypropylcellulose) (HPC)) was 97 % of control and the T/C (dose: 200.0 mg/kg/injection, schedule: Q04DX003 (ip), vehicle: other) was 101 % of control. For the same molecule, the T/C (dose: 400.0 mg/kg/injection, schedule: Q01DX001 (ip), vehicle: Klucel (hydroxypropylcellulose) (HPC)) was 101 % of control, the T/C (dose: 400.0 mg/kg/injection, schedule: Q04DX002 (ip), vehicle: Klucel (hydroxypropylcellulose) (HPC)) was 100 % of control and the T/C (dose: 400.0 mg/kg/injection, schedule: Q04DX003 (ip), vehicle: other) was 97 % of control.
